Results on 93 compounds are retold here after PubChem BioAssay AID1508612.

One may read the Papp as the rate of passage across a membrane or cell layer, normalised by area and donor concentration. Low values mean poor permeation, high ones ready permeation.

A short description of the series: passive permeability, PAMPA, ADME assay (AID 1508612). Conditions: pH 7.4, 30.0 min, 50.0 µM.
As to `COc1cc(Nc2nc(-c3ccncc3)nc3ccccc23)ccc1NS(C)(=O)=O`, the apparent permeability (Papp) is greater than 1000 ×10⁻⁶ cm/s.

The compound `COc1cccc(-n2nc(C(=O)O)cc2-c2ccc(C3CCCCC3)c(Cl)c2)c1` registered an apparent permeability coefficient (Papp) greater than 1000 ×10⁻⁶ cm/s. As to `COc1ccc(NC(=O)c2[nH]c(C)cc2C)cc1S(=O)(=O)Nc1ccc(Br)cc1`, the Papp is greater than 1000 ×10⁻⁶ cm/s. In turn, `O=C(Nc1ccc(S(=O)(=O)Nc2nccs2)cc1)c1ccnc2ccccc12` had an apparent permeability coefficient (Papp) of 2.3 ×10⁻⁶ cm/s. In turn, `CC(=O)c1c(C)[nH]c(C(=O)Nc2cccc([S+](=O)([O-])Nc3ccccn3)c2)c1C` displayed an apparent permeability coefficient (Papp) of 11.6 ×10⁻⁶ cm/s. Compared with the last compound, the Papp is about 5-fold higher. To `Cc1ccc(S(=O)(=O)Nc2ccc(F)cc2C(=O)Nc2nc(-c3ccccc3)cs2)cc1` belongs 21.4 ×10⁻⁶ cm/s. `Cc1ccc(NS(=O)(=O)c2cc3c(cc2N[C@H](C)CO)NC(=O)CC3)cc1C` displayed an apparent permeability coefficient (Papp) of 273 ×10⁻⁶ cm/s. With `Cc1cc(-c2nnc3n2CCCCC3)c(C)n1-c1ccc(F)cc1` the figure was 314 ×10⁻⁶ cm/s. Regarding `CC(=O)Nc1ncc(S(=O)(=O)N2CCOCC2)s1`, the apparent permeability coefficient (Papp) amounted to 37.9 ×10⁻⁶ cm/s. `COc1cc(N2CCC(N3CCN(C)CC3)CC2)ccc1Nc1ncc(Cl)c(Nc2ccccc2P(C)(C)=O)n1`: the Papp was 266 ×10⁻⁶ cm/s. Compound `Cc1nn(CCc2nc(-c3ccccc3)cs2)c2[nH]c(=O)cc(C(F)(F)F)c12` yielded an apparent permeability coefficient (Papp) of 426 ×10⁻⁶ cm/s. With `COc1ccc(-c2[nH]nc3ncc(-c4ccc(CO)cc4)nc23)cc1F`, the apparent permeability coefficient (Papp) came to 353 ×10⁻⁶ cm/s. The Papp values of the last two compounds are within 1.5-fold of each other. With `Cc1cc(C)c2nc(-c3ccccn3)cc(C(=O)Nc3ccc(S(=O)(=O)Nc4onc(C)c4C)cc3)c2c1`, the Papp came out at 240 ×10⁻⁶ cm/s. For the compound `CC(C)c1nc(CN(C)C(=O)N[C@H](C(=O)N[C@@H](Cc2ccccc2)C[C@H](O)[C@H](Cc2ccccc2)NC(=O)OCc2cncs2)C(C)C)cs1`, the apparent permeability (Papp) was greater than 1000 ×10⁻⁶ cm/s. The compound `Cc1cc(C)nc(NC(=S)N2CCN(c3ccc4nsnc4c3)CC2)c1` came in with a Papp of 707 ×10⁻⁶ cm/s. To `COc1ccccc1-c1[nH]nc2ncc(-c3ccc(C)cc3)nc12` belongs 76.2 ×10⁻⁶ cm/s; to `CCOc1cc2ncc(C#N)c(Nc3ccc(OCc4ccccn4)c(Cl)c3)c2cc1NC(=O)C=CCN(C)C`, less than 1 ×10⁻⁶ cm/s. Compound `O=S(=O)(c1ccc2ccccc2c1)N1CCN(c2nc(-c3cccs3)nc3ccccc23)CC1` had an apparent permeability coefficient (Papp) of 3.2 ×10⁻⁶ cm/s. With `Cn1ccc2c(C(=O)NCC3CCC(=O)N3)nc(-c3ccccc3C#N)cc21` (stereo not drawn) the figure was 265 ×10⁻⁶ cm/s; with `Cc1ccc(C)c(CN2CCC(CNC(=O)Nc3ccc(Br)cc3F)CC2)c1`, greater than 1000 ×10⁻⁶ cm/s; with `Cc1ccc(-c2cc(C(=O)Nc3ncco3)c3ccccc3n2)cc1C`, 798 ×10⁻⁶ cm/s.

In the case of `CCN(c1ccccc1)S(=O)(=O)c1c(C)nc2scc(C)n2c1=O`, the apparent permeability (Papp) stood at 615 ×10⁻⁶ cm/s. This Papp and that of the compound before are within 1.5-fold of each other.

`CCn1ncc(NC(=O)Cn2ncc3cc(-c4cccc(OC)c4)ccc32)n1` had a Papp greater than 1000 ×10⁻⁶ cm/s. To `CCCCn1cnc2cc(NCc3ccc(OCC)cc3)ccc21` belongs greater than 1000 ×10⁻⁶ cm/s. On to `CCc1ccccc1-n1c(SCC(=O)Nc2ccc(C)cc2)nc2n[nH]c(C)c2c1=N`, for which the Papp stood at 95.3 ×10⁻⁶ cm/s. As for `Brc1ccccc1-c1nc(NCc2ccc(-c3cccnc3)cc2)c2ccccc2n1`, the apparent permeability (Papp) is greater than 1000 ×10⁻⁶ cm/s. To `Nc1c(C(=O)Nc2ccc(Cl)cc2)sc2nc3c(cc12)N1CCC3CC1` belongs 697 ×10⁻⁶ cm/s. `Cc1cc(C)nc(NC(=S)N2CCN(c3ccc(F)cc3F)CC2)c1`: the Papp is greater than 1000 ×10⁻⁶ cm/s.

Compound `O=C(c1ccc2ccccc2c1)N1CCN(c2ccc(O)cc2)CC1` returned a Papp of 527 ×10⁻⁶ cm/s.

For the compound `CC(C)CC(=O)Nc1n[nH]c2c1CN(C(=O)C1CCN(C)CC1)C2(C)C`, the apparent permeability (Papp) is less than 1 ×10⁻⁶ cm/s. `O=C(Nc1nc(-c2ccccn2)cs1)c1cccc(S(=O)(=O)N2CCOCC2)c1`: the apparent permeability coefficient (Papp) worked out at 657 ×10⁻⁶ cm/s. `COc1ccc(-n2nc(C)c([C@@H]3C=C[C@@H](NCc4ccc(F)cc4)C3)c2C)cc1`: the apparent permeability (Papp) is greater than 1000 ×10⁻⁶ cm/s.

In turn, `Oc1cccc(-c2nc(N3CCOCC3)c3oc4ncccc4c3n2)c1` had an apparent permeability coefficient (Papp) of 537 ×10⁻⁶ cm/s. Compound `Cc1ccnc(C)c1C(=O)Nc1cccc([S+](=O)([O-])N(C)C)c1` showed an apparent permeability coefficient (Papp) of 98.5 ×10⁻⁶ cm/s. `COc1cccc(CNC(=O)CCCn2nc(C)c3c(C)n(-c4ccc(C)cc4)nc3c2=O)c1OC` had an apparent permeability coefficient (Papp) of 619 ×10⁻⁶ cm/s. With `N#Cc1ccccc1-c1csc(N2CCC(C(N)=O)CC2)n1` the figure was 343 ×10⁻⁶ cm/s; with `O=c1cc(-c2ccc(O)c(O)c2)oc2cc(O)cc(O)c12`, 120 ×10⁻⁶ cm/s; with `Cc1cc(NS(=O)(=O)c2ccc3c(c2)CCC(=O)N3)ccc1F`, 412 ×10⁻⁶ cm/s. As to `COc1ccc(-c2cn[nH]c2-c2ccc(OC)cc2)cc1`, the apparent permeability (Papp) was greater than 1000 ×10⁻⁶ cm/s. With `O=C1C2=C(Nc3ccccc3SC2c2ccco2)c2ccccc21` (stereo not drawn), the apparent permeability coefficient (Papp) worked out at 371 ×10⁻⁶ cm/s.

`CS(=O)(=O)c1ccc(-c2csc(N3CCC(C(N)=O)CC3)n2)cc1`: the Papp is 74 ×10⁻⁶ cm/s.

As for `Cc1ccc(-n2nc3c(=O)n(CCCC(=O)NCc4ccccc4F)nc(C)c3c2C)cc1`, the apparent permeability coefficient (Papp) was 920 ×10⁻⁶ cm/s. Against the preceding compound, the Papp is about 12-fold higher.

In the case of `O=C1CCCC2=C1C(c1[nH]ncc1Cl)N=C(Nc1nc3cc([S+](=O)([O-])N4CCOCC4)ccc3o1)N2` (stereo not drawn), the Papp amounted to 169 ×10⁻⁶ cm/s. With `Fc1ccc(-c2ccc(Nc3nc(-c4ccncc4)nc4ccccc34)cc2F)cc1` the figure was 93.6 ×10⁻⁶ cm/s; with `O=C(O)CNC(=O)c1c(O)c2ccccc2n(Cc2ccccc2)c1=O`, 14.6 ×10⁻⁶ cm/s; with `O=C(Nc1ccc(C(=O)Nc2nccs2)cc1)c1ccc2ccccc2c1`, greater than 1000 ×10⁻⁶ cm/s. Take `O=C(Nc1cc(C(F)(F)F)ccc1N1CCOCC1)c1n[nH]c(=O)c2ccccc12`: the apparent permeability coefficient (Papp) amounted to 53.5 ×10⁻⁶ cm/s.

`Cc1cc2c(-c3cccc(O)c3)nc(-c3c(C)noc3C)cc2[nH]1` showed an apparent permeability coefficient (Papp) greater than 1000 ×10⁻⁶ cm/s. Take `COC(=O)[C@H](Cc1ccc(O[S+](=O)([O-])c2cccc3cnccc23)cc1)N[S+](=O)([O-])c1ccc2cnccc2c1`: the apparent permeability coefficient (Papp) was greater than 1000 ×10⁻⁶ cm/s. In the case of `C1CCc2nc3c(nc2C1)CCCC3`, the Papp amounted to 257 ×10⁻⁶ cm/s. Compound `O=C(NCCCCc1ccccc1)C1CCN(c2nc(-c3ccc(Br)cc3)cs2)CC1` displayed an apparent permeability (Papp) of 5.3 ×10⁻⁶ cm/s. With `O=C(NCCCn1ccnc1)c1ccc(-c2ncc3cnc(-c4cccc(F)c4)cn23)cc1` the figure was less than 1 ×10⁻⁶ cm/s; with `C[C@@H](O)CNC(C)(C)CC(=O)N[C@@H]1CCc2ccccc2N(Cc2ccc(-c3ccccc3-c3nn[nH]n3)cc2)C1=O`, less than 1 ×10⁻⁶ cm/s. Take `COc1ccc(CN2CCNc3cc(Nc4ccccc4)ncc3C2)cn1`: the Papp turned out to be 834 ×10⁻⁶ cm/s.

In turn, `COc1ccc(OC)c(-c2nnc3n2N=C(c2c(OC)cccc2OC)CS3)c1` came in with a Papp of 617 ×10⁻⁶ cm/s. In the case of `CNC(=O)c1ccc(-c2cnc3cnc(C(=O)N(C)c4ccc(Cl)cc4)cn23)cc1`, the Papp was determined as 120 ×10⁻⁶ cm/s. `O=C(Nc1ccccc1F)c1nc(S(=O)(=O)Cc2ccccc2F)ncc1Cl` yielded a Papp of 891 ×10⁻⁶ cm/s. As to `CS(=O)(=O)c1ccc2nc(NC(=O)C3CC3)sc2c1`, the apparent permeability (Papp) is 106 ×10⁻⁶ cm/s. In the case of `Fc1ccc(CNc2nc(-c3ccncc3)nc3ccccc23)cc1F`, the apparent permeability (Papp) amounted to 569 ×10⁻⁶ cm/s. `Cc1ccc(NC2=C(c3ccc(C(F)(F)F)cc3)C(=O)c3ccccc32)cc1F` returned a Papp of less than 1 ×10⁻⁶ cm/s. With `Cc1cccc(C(=O)N2CCc3cc(-c4nc(NC(=O)Cc5ccc6c(c5)OCO6)sc4C)ccc32)c1` the figure was 59 ×10⁻⁶ cm/s. `CCn1cc(CNC(=O)c2cc(-c3ccc(C)cc3)nc3ccc(Br)cc23)c(C)n1`: the apparent permeability coefficient (Papp) was found to be 5.55 ×10⁻⁶ cm/s. Consider `NCC(=O)Nc1cccc(-c2nn3c(=O)cc(N4CCNCC4)nc3s2)c1`, for which the Papp is less than 1 ×10⁻⁶ cm/s. With `Clc1ccc2ncc(-c3cccc(NC4CCNC4)n3)n2c1` (stereo not drawn) the figure was 332 ×10⁻⁶ cm/s; with `Cn1c(CN2CCCCC2)nc2cc(NC(=O)c3cccc(Br)c3)ccc21`, greater than 1000 ×10⁻⁶ cm/s. In turn, `CCOc1ccc(C(C)CNC(=O)c2cc3sccc3n2Cc2ccccc2)cc1OCC` (stereo not drawn) gave a Papp greater than 1000 ×10⁻⁶ cm/s. As to `COCCNc1ncnc2onc(-c3ccc(F)cc3)c12`, the Papp stood at 458 ×10⁻⁶ cm/s.

As to `CCOc1cc(CNc2ccc(O)cc2)ccc1OCc1ccc(Cl)cc1`, the apparent permeability (Papp) is less than 1 ×10⁻⁶ cm/s. To `Cc1nn2c(c1-c1ccccc1Oc1ccccc1)N(Cc1ccccc1O)CCC2` belongs greater than 1000 ×10⁻⁶ cm/s; to `Oc1ccc(NCc2ccccc2OCc2ccccc2Cl)cc1`, 79.5 ×10⁻⁶ cm/s.

`Cc1cccc(C)c1NC(=O)c1nc(SC(C)C)ncc1Cl` yielded a Papp greater than 1000 ×10⁻⁶ cm/s.

`N#Cc1ccccc1S(=O)(=O)Nc1cnccc1C(=O)Nc1nc(-c2ccccc2)cs1` had a Papp of 61.8 ×10⁻⁶ cm/s. Consider `O=C(COC(=O)CCC(=O)c1cccs1)NCc1ccco1`, for which the Papp turned out to be 121 ×10⁻⁶ cm/s. With `Cc1ccc(S(=O)(=O)Nc2cnccc2C(=O)Nc2ccc(C#N)cc2)cc1` the figure was 69.6 ×10⁻⁶ cm/s.

`FC(F)(F)c1ccccc1-c1nc(NCc2ccc(-c3cccnc3)cc2)c2ccccc2n1` registered an apparent permeability (Papp) of 786 ×10⁻⁶ cm/s. The compound `COCCNC(=O)c1ccc(-c2ncc3cnc(-c4cccc(F)c4)cn23)cc1` showed a Papp of 405 ×10⁻⁶ cm/s. This Papp is about 1.9-fold lower than that of the compound before. For the compound `COc1ccc(-n2nc(C3CCCN(C(=O)c4ccc(C)cc4)C3)[nH]c2=O)cc1` (stereo not drawn), the apparent permeability coefficient (Papp) came out at 685 ×10⁻⁶ cm/s. Compound `C[C@H]1CCC[C@H](O)CCC/C=C/c2cc(O)cc(O)c2C(=O)O1` had an apparent permeability coefficient (Papp) of 864 ×10⁻⁶ cm/s. Consider `Cc1cc(-c2cc3c(nc2-c2ccccc2)nc(C(=O)NCCN(C)C)n3C)ccn1`, for which the apparent permeability (Papp) stood at 320 ×10⁻⁶ cm/s. This Papp lies about 2.7-fold lower than the previous one. With `CCC(Sc1nc2ccccc2c2nc(CCc3c(C)n[nH]c3C)nn12)C(=O)Nc1ccc(F)cc1` (stereo not drawn) the figure was 37.9 ×10⁻⁶ cm/s; with `Fc1ccc(Nc2ccnc(-c3ccncc3)n2)cc1F`, 371 ×10⁻⁶ cm/s; with `CC(=O)NCc1ccc(-c2csc(Nc3cc(C)cc(C)c3)n2)o1`, greater than 1000 ×10⁻⁶ cm/s. `Cc1ccnc(NC(=S)N2CCN(c3ccc(Cl)cc3Cl)CC2)c1`: the Papp was determined as 868 ×10⁻⁶ cm/s. With `CCN1C(=O)c2ccccc2[S@](=O)c2ccc(C(=O)NCc3ccc(F)cc3)cc21` the figure was greater than 1000 ×10⁻⁶ cm/s; with `CCOc1ccc(N2CC(c3nc(-c4ccccn4)no3)CC2=O)cc1` (stereo not drawn), 297 ×10⁻⁶ cm/s; with `COC(=O)c1cc(Cl)ccc1NC(=O)CSc1ncc(S(=O)(=O)c2ccc(Br)cc2)c(=O)[nH]1`, 68.7 ×10⁻⁶ cm/s.

In turn, `O=c1[nH]c(N2CCOCC2)nc2c1CCN(Cc1cc(Cl)ccc1F)CC2` yielded a Papp greater than 1000 ×10⁻⁶ cm/s. The compound `CCOc1ccc(CCNC(=O)c2cc3ccncc3n2Cc2cccc(C)c2)cc1OCC` showed a Papp of 20.6 ×10⁻⁶ cm/s. For the compound `Cc1cnc(-c2ccccc2C(F)F)nc1NCC1CN(c2cnccn2)C1`, the apparent permeability (Papp) was greater than 1000 ×10⁻⁶ cm/s. `CCc1ccc(CNc2ccc3c(c2)ncn3C(C)(C)C)cc1` gave an apparent permeability (Papp) greater than 1000 ×10⁻⁶ cm/s. Compound `Cc1ccc(-c2nc(NCC(=O)Nc3cccc(C(=O)O)c3)c3ccccc3n2)cc1` came in with an apparent permeability (Papp) of less than 1 ×10⁻⁶ cm/s. Regarding `COC(=O)c1ccc(NS(=O)(=O)c2c(C)nc3sccn3c2=O)cc1`, the Papp turned out to be 333 ×10⁻⁶ cm/s. With `C/C=C1/CN2CC[C@@]34c5ccccc5N(C)[C@@H]3[C@@H]2C[C@@H]1[C@H]4C(=O)OC` the figure was 895 ×10⁻⁶ cm/s.
